Series [1] has as its target novel receptor obtainable from rat forebrain tissue. The experiment in a line: Radioligand binding assay, [3H]-Compound A displacement in rat forebrain tissue. As to conditions: competition with [3H]-Compound A (usually 20 nM). On the procedure: WO 92/22293 (SmithKline Beecham) discloses compounds having anti-convulsant activity, including inter alia the compound (3R, 4S)-6-acetyl-(4-fluorobenzoylamino)-3,4-dihydro-2,2-dimethyl-2H-1-benzopyran-3-ol (hereinafter referred to as Compound A). […] The affinity of test compounds to the novel receptor site is assessed as follows.
Whole forebrain tissue is obtained from rats. The tissue is first homogenised in buffer (usually 50 mM Tris/HCl, pH 7.4). The homogenised tissue is washed by centrifugation and resuspension in the same buffer, then stored at −70° C. until used.
To carry out the radioligand binding assay, aliquots of tissue prepared as above (usually at a concentration of 1-2 mg protein/ml) are mixed with aliquots of [3H]-Compound A dissolved in buffer. The final concentration of [3H]-Compound A in the mixture is usually 20 nM. The mixture is incubated at room temperature for 1 hour. [3H]-Compound A bound to the tissue is then separated from unbound [3H]-Compound A by filtration through Whatman GF/B glass fibre filters. The filters are then washed rapidly with ice-cold buffer. The amount of radioactivity bound to the tissue trapped on the filters is measured by addition of liquid scintillation cocktail to the filters followed by counting in a liquid scintillation counter. […]

For series [2], the system named is electrically-induced seizures. The series can be described thus: Maximal electroshock seizure threshold (MEST) test. In kind it is in vivo. The conditions noted are these: rat, intravenous route, solution in 20% PEG, 1 mg/kg, tested 30 min post dosing. How it is done: The maximal electroshock seizure threshold (MEST) test in rodents is particularly sensitive for detecting potential anticonvulsant properties^1. In this model, anticonvulsant agents elevate the threshold to electrically-induced seizures whilst proconvulsants lower the seizure threshold. Rats (naive male, Charles River, U.K. Sprague Dawley strain, 100-150 g) are randomly assigned to groups of 10-20 and dosed orally, intravenously or intraperitoneally at a dose volume of 1 ml/kg with various doses of compound (0.1-300 mg/kg) or vehicle. […] The mean current and standard error required to induce a tonic seizure in 50% (CC50) of the rats in a particular treatment group is determined by the ‘up and down’ method of Dixon and Mood (1948)^2. Statistical comparisons between vehicle- and drug-treated groups are made using the method of Litchfield and Wilcoxon (1949)^3. In control animals the CC50 is usually 20-30 mA. […] If a tonic convulsion does occur, then the current is decreased, and so on until all the animals in the group have been tested. The percentage increase or decrease in CC50 for each group compared to the control is calculated. Studies are carried out using a Hugo Sachs Electronik Constant Current Shock Generator with totally variable control of shock level from 0 to 300 mA and steps of 5-20 mA are usually used. […]
In general terms: Protection in the maximal electroshock model is a classic sign of anticonvulsant action.

Usually melting point stands for the temperature of the solid-liquid transition.

Turning to `CC1(C)Oc2ccc(C(=O)CO)cc2[C@H](NC(=O)c2cc(F)cc(F)c2)[C@H]1O` [Example 1, (3R,4S)-4-(3,5-difluorobenzamido)-3,4-dihydro-2,2-dimethyl-3-hydroxy-6-(2-hydroxyacetyl)-2H-1-benzopyran], the melting point was found to be 179.4 °C. The pKi value in series [1] amounted to 7.35. In series [2], the “increase in seizure threshold relative to control” value is 317%.

The compound `CC1(C)Oc2ccc(C(=O)CO)cc2[C@H](NC(=O)c2ccc(F)cc2)[C@H]1O` [Example 3, (3R,4S)-4-(4-fluorobenzamido)-3,4-dihydro-2,2-dimethyl-3-hydroxy-6-(2-hydroxyacetyl)-2H-1-benzopyran] yielded a melting point of 216 °C.
